Activity calls are given as the source filed them.
Tests used:
[1] = target: Lysosomal acid glucosylceramidase (Homo sapiens, UniProt P04062); test: Dose response cell-based high throughput screening assay to identify enhancers of beta-glucosidase activity. [Related pubchem assays: 784 ]; format: functional
[2] = target: T1, Eukaryotic translation initiation factor 2-alpha kinase 3 (Homo sapiens, UniProt Q9NZJ5); test: Dose response cell-based high-throughput screening assay to measure PERK inhibition. [Related pubchem assays: 1416 ]; format: functional
[3] = target: T1, Eukaryotic translation initiation factor 2-alpha kinase 3; test: Counterscreen assay for PERK inhibitors: Dose response cell-based high throughput screening assay to measure inhibition of PERK at 6 hours. [Related pubchem assays: 1522, 1416 ]; format: functional
[4] = target: Photoreceptor-specific nuclear receptor (Homo sapiens, UniProt Q9Y5X4); format: functional;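 note: potency for compounds that break the NR2E3 corepressor complex and count as activators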
[5] = target: Peroxisome proliferator-activated receptor gamma/Nuclear receptor corepressor 2 (Homo sapiens, UniProt P37231+Q9Y618); format: functional
[6] = target: Cytochrome P450 2D6 (Homo sapiens, UniProt P10635); test: qHTS Assay for Inhibitors and Substrates of Cytochrome P450 2D6. [Related pubchem assays: 410 ]; format: ADME; conditions: read-out: Potency
[7] = target: T2, Neuropeptide Y receptor type 1 (Homo sapiens, UniProt P25929); format: functional;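 note: HEK293 cells with a CNG channel challenged with NPY then isoproterenol; potency as antagonist that reverses NPY suppression of cAMP signal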
T2 sequence (P25929 whole entry): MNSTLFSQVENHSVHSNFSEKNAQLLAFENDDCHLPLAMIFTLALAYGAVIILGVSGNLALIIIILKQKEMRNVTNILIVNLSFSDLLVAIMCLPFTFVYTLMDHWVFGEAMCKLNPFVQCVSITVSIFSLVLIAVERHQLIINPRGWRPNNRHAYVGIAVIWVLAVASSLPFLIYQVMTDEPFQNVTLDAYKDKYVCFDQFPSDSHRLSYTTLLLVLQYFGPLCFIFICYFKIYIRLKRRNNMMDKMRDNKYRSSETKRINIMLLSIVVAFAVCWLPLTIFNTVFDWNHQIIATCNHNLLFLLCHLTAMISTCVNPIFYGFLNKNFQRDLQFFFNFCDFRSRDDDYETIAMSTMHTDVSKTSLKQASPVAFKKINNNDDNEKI

[8] = target: T3, Neuropeptide Y receptor type 2 (Homo sapiens, UniProt P49146); format: functional, cell-based;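 note: HEK293 cells expressing the receptor and a CNG channel; stimulus was NPY near EC95 followed by isoproterenol to raise cAMP; antagonist potency measured as restoring cAMP signal that NPY suppresses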
T3 sequence (P49146 whole entry): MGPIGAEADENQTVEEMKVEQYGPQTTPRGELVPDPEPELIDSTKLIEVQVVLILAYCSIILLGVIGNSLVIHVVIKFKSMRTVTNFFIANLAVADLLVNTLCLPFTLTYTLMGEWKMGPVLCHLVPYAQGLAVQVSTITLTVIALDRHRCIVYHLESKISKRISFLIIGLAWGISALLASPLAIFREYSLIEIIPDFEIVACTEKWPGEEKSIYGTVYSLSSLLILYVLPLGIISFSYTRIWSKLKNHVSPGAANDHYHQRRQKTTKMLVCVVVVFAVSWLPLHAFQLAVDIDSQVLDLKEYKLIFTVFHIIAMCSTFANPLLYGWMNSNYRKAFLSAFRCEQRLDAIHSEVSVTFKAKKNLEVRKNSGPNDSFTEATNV

[9] = viability of PTEN-deleted HCT116 cells – cell-based, HCT116 PTEN knockout, dose response (AID 1047); format: functional;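 note: HCT116 colon tumor cells with PTEN knocked out; cells exposed to compound for 60 hours before readout; potency for loss of cell viability measured by luminescence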
[10] = viability of HCT116 lacking mutant beta-catenin – cell-based, human colon tumor, dose response (AID 1045); format: functional;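 note: HCT116 colon tumor cells with beta catenin knocked out; cells exposed to compound for 60 hours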
[11] = tested on: Streptococcus sp. 'group A'; test: Streptococcus pyogenes SK(-)GAS viability under kanamycin – luminescence, BacTiterGlo, confirmation, counter-screen for streptokinase expression inhibitor project, dose response (AID 1900); format: functional, organism-based
[12] = target: Serine/threonine-protein phosphatase PP1-alpha catalytic subunit (Homo sapiens, UniProt P62136); test: inhibition of protein phosphatase 1 activity – biochemical, fluorescence, dose response (AID 2403);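 note: phosphatase turnover of OMFP into fluorescent 3-O-methylfluorescein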
[13] = target: T4, Streptokinase A (Streptococcus pyogenes serotype M1, UniProt P10520); test: viability-normalized secreted streptokinase activity reduction – plasminogen activation absorbance, OD405, dose response (AID 1914); format: functional, Streptococcus pyogenes M1 GAS;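 note: secreted streptokinase activity via plasminogen activation per viability signal from cell pellet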
T4 sequence (P10520 whole entry): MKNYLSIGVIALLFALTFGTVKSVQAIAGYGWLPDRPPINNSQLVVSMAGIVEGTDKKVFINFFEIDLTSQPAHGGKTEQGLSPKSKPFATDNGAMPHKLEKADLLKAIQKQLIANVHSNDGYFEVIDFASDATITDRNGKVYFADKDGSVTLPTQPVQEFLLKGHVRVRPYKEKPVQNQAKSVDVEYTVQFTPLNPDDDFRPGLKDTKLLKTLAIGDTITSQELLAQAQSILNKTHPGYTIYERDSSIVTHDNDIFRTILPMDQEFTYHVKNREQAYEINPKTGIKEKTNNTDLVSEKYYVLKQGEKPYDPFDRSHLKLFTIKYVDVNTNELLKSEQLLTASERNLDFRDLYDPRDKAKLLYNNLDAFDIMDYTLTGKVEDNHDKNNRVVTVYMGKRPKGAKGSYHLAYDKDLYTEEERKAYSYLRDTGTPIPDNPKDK

[14] = target: Serine/threonine-protein phosphatase (Homo sapiens, UniProt Q9BPW0); test: Counterscreen for inhibitors of PP1: fluorescence-based biochemical high throughput dose response assay to identify inhibitors of Protein Phosphatase 5 (PP5). [Related pubchem assays: 2034 (Summary (PP5 inhibitors)), 1987 (PP5 inhibitors in singlate), 2235 (PP1 inhibitors in singlate)]
[15] = tested on: Streptococcus; test: GAS UMAA2166 growth inhibition – luminescence, BacTiterGlo, counter-screen for streptokinase expression inhibitor project, dose response (AID 1915); format: functional, organism-based;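 note: potency for reduction of bacterial viability or growth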
[16] = tested on: Streptococcus; test: Luminescence Microorganism-Based Dose Response Follow up to Identify Compounds Cytotoxic to Streptococcus. [Related pubchem assays: 1677 (Project Summary), 1915, 1914, 1902 (Retest at Dose), 1900 (Counter Screen), 1662 (Primary HTS)]; format: functional, organism-based

T1 sequence (Q9NZJ5 whole entry): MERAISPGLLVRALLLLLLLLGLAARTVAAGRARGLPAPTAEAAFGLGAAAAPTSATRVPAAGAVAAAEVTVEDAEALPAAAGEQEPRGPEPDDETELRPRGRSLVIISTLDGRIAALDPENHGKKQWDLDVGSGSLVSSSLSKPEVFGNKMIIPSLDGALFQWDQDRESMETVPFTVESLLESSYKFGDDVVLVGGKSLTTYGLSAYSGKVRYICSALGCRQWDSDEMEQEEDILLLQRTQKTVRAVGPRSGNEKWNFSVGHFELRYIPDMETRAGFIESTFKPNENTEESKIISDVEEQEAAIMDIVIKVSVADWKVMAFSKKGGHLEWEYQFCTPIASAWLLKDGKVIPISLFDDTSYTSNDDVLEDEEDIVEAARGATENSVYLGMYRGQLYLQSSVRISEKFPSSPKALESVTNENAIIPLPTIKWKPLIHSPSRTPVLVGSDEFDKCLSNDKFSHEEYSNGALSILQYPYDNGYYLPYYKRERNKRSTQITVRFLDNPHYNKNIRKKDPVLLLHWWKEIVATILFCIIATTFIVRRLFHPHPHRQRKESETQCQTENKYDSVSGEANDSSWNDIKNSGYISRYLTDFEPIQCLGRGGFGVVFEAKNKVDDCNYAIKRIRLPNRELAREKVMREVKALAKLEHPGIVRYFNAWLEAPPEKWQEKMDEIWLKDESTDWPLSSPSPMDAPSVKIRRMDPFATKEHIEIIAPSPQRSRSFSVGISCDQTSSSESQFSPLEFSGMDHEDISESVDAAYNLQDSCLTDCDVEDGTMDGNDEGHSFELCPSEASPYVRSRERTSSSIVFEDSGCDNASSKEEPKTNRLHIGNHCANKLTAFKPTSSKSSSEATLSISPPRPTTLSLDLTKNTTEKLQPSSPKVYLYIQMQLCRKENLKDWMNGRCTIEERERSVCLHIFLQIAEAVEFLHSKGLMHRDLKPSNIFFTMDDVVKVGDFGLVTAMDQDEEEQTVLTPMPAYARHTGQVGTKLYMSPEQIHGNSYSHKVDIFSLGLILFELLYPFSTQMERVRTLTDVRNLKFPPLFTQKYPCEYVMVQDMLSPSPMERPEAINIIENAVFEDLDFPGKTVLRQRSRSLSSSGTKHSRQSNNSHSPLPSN
Chain of Lysosomal acid glucosylceramidase (P04062 whole entry): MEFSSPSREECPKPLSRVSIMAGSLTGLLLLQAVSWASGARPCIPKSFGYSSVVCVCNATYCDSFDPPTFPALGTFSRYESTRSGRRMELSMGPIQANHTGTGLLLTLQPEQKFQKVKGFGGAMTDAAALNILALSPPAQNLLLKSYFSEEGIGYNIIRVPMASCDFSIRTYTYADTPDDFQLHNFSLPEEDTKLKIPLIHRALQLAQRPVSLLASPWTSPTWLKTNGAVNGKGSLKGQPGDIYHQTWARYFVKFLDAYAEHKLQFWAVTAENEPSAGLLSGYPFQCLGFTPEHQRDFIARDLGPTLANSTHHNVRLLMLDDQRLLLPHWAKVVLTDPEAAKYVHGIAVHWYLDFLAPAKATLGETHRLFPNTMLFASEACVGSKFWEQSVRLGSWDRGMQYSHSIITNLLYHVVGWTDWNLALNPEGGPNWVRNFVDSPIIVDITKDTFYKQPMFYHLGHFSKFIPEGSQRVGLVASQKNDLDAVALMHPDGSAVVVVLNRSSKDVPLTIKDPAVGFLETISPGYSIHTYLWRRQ
Chain of Cytochrome P450 2D6 (P10635 whole entry): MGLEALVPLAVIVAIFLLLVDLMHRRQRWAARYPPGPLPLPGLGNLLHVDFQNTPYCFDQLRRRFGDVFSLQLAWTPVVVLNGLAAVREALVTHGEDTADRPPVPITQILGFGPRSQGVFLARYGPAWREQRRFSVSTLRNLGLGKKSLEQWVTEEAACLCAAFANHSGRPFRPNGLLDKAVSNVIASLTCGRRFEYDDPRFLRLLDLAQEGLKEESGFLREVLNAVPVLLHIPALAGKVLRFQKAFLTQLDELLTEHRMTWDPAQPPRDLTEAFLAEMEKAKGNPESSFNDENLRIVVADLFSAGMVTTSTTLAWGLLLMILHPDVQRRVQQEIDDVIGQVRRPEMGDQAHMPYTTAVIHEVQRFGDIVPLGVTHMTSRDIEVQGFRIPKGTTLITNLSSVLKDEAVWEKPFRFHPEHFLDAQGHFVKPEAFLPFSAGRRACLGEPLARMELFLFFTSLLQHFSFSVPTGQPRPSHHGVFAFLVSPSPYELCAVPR
Chain of Photoreceptor-specific nuclear receptor (Q9Y5X4 whole entry): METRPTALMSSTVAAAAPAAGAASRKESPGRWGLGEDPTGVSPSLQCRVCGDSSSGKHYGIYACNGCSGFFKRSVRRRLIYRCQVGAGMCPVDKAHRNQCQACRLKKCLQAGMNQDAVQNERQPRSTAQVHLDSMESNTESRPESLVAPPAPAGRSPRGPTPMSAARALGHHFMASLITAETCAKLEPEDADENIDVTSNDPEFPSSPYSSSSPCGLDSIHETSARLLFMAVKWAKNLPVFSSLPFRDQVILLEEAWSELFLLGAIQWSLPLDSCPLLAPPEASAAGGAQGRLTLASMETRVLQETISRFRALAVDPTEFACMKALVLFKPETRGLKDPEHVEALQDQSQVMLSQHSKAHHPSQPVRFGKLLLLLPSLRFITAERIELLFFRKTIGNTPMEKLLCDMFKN
Chain of Serine/threonine-protein phosphatase (Q9BPW0 whole entry): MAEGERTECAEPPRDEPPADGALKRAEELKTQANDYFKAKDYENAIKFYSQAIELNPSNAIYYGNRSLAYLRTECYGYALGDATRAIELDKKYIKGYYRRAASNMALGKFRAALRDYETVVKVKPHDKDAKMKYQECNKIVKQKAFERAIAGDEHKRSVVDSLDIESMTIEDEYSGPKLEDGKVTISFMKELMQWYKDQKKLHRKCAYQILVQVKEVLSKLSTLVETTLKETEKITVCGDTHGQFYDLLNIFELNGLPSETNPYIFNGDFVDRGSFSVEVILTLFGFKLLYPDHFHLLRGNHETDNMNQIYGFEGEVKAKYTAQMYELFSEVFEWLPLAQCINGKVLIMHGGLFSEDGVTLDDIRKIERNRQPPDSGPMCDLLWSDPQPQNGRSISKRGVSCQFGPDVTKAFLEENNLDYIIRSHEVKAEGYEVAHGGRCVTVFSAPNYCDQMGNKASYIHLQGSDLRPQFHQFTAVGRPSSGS
Chain of Serine/threonine-protein phosphatase PP1-alpha catalytic subunit (P62136 whole entry): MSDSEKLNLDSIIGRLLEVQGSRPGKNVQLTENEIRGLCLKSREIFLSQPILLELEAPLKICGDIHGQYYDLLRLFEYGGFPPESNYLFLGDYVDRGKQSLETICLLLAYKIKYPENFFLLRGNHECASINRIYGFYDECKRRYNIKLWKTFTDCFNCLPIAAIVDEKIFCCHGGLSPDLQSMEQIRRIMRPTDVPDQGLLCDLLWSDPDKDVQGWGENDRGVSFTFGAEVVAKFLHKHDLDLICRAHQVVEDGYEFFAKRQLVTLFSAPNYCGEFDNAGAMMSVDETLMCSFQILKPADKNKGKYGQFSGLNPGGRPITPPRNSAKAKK

Q: For `Cc1cc(C)nc(Sc2nc(C)nc3c2oc2ccccc23)n1`, which EC50 [1] is on record?
A: The EC50 was > 50 µM (not active).

Q: Which results are given for `COc1ccccc1NC(=O)CSc1nnc(CCC(=O)Nc2ccccc2F)n1C`?
A: EC50 [2]: > 55.7 µM (not active); EC50 [3]: > 55.7 µM (not active)

Q: With `COC(=O)CCCCC1SCC2NC(=O)NC21O` (centres undefined) as the molecule, how does the IC50 [4] read?
A: Its IC50 is 0.139 µM (active).

Q: And the IC50 [5]?
A: The IC50 was 0.577 µM (active).

Q: For `COC1=C[C@H]2[C@@H]3Cc4ccc(OC)c(O)c4[C@@]2(CCN3C)CC1=O`, which AC50 [6] is on record?
A: Its AC50 is 20 µM (inconclusive).

Q: What does the source list for `Cc1cccc(N=C(S)N(CCN(C)C)Cc2cc3cc(C)cc(C)c3nc2O)c1`?
A: IC50 [7]: 6.32 µM (active); IC50 [8]: 14.3 µM (not active); EC50 [9]: 33.6 µM (active); EC50 [10]: 18.1 µM (active)

Q: With `O=S(=O)(Cc1cc(NCc2ccccc2)nc(-c2ccccn2)n1)c1ccccc1` as the molecule, how does the EC50 [11] read?
A: Its EC50 is 21 µM (active).

Q: What about the IC50 [12] of the same molecule?
A: The IC50 was 7.88 µM (active).

Q: And the EC50 [13]?
A: The EC50 was > 150 µM (not active).

Q: What about the IC50 [14] of the same molecule?
A: The IC50 was > 67 µM (not active).

Q: And the EC50 [15]?
A: Its EC50 is > 150 µM (not active).

Q: With `COc1ccc(Nc2ncnc3scc(-c4ccc(OC)cc4)c23)cc1` as the molecule, how does the EC50 [11] read?
A: The EC50 was 122 µM (active).

Q: What about the EC50 [16] of the same molecule?
A: Its EC50 is > 500 µM (not active).

Q: And the EC50 [13]?
A: The EC50 was 10.5 µM (active).

Q: And the EC50 [15]?
A: Its EC50 is > 150 µM (not active).

— ChEMBL document CHEMBL1201862, “PubChem BioAssay data set” (2004)
